Results from patent US20240390404A1, “ANTI-HUMAN NOROVIRUS AGENT” (KEIO UNIVERSITY, priority 2018, published 2024).
Entries after “also recorded” stand apart in the source; their conditions may differ.

What was measured:
[1] = system: human norovirus GII.4 (K2017 strain); assay: Human norovirus proliferation inhibition in 2D organoid after agent pre-treatment, GII.4 strain; assay type: cell-based
Procedure: Feces of a human norovirus-infected patent contains a large amount of infectious human norovirus. Thus, the feces of a human norovirus-infected patient is suspended in distilled water or the like to a final concentration of about 10%, to thereby prepare a “10% feces suspension.” The 10% feces suspension is about 10-fold diluted with an ENRA medium. The diluted suspension is added to each of the aforementioned wells having the 2D organoid (5 μL/well) and subjected to incubation for about 3 hours, to thereby proliferate human norovirus. As a result of verification, it has been confirmed that human norovirus proliferates to about 100,000 times the initial count through the culture system employing the 2D organoid.
In the Example, there were tested strains of human norovirus obtained from feces of human norovirus infection patients through the aforementioned procedure and stocked before the test. Specifically, three strains belonging to the genetic group 2 (GII) which accounts for 80 to 90% of the infected patients were selected as test targets. The isolated strain lineages included in GII (FIG. 1) were GII. 6 belonging to “Lineage 1,” GII. 3 belonging to “Lineage 2,” and GII.4 belonging to “Lineage 3” (GII. 6: K2017 strain, GII.3: TCH2004 strain, and GII. 4: K2017 strain).
The effect of 2fp-fucose treatment on proliferation of human norovirus was investigated for each lineage of norovirus. Specifically, after the 2fp-fucose treatment for 3 days, the 2D organoid was infected with each of the aforementioned norovirus strains GII.6, GII. 3, and GII. 4, and the viral proliferation amount was determined on days 3 and 6 after infection (FIG. 4).
Next, there was investigated the effect of the period of time (the number of days) of the 2fp-fucose treatment performed in advance on the anti-human norovirus action of the fucose analog. Specifically, the strain GII. 4 was treated with 2fp-fucose (several concentrations) for 1 to 4 days. […] However, in the group of 3-day treatment, the proliferation inhibition effect was observed by the 200 μM treatment with a certain range of variation in effectiveness. In the group of 4-day treatment, the proliferation inhibition effect was initially observed by 8 μM treatment, and the effect increased in a concentration-dependent manner to a 2fp-fucose concentration of 200 μM. […] Thus, the highest proliferation inhibition effect was obtained in the 2D organoid system through a 200 μM treatment for 3 to 4 days. The test was repeatedly performed three times. Error bars denote SEMs.
The 2D organoid was treated with an agent for 3 days. The tested agents were (a) 2fp-fucose (200 μM), (b) Sofosbuvir (1 μM), (c) Lamivudine (1 μM), (d) Ribavirin (400 μM), and (e) Mizoribine (100 μM). Subsequently, the thus-treated 2D organoid was infected with human norovirus (the norovirus strain GII.4), and the proliferation inhibition effect was determined (FIG. 6). The test was repeatedly performed three times. Error bars denote SEMs.

[2] = system: 2D organoid derived from intestinal stem cells; assay: Cytotoxicity of 2fp-fucose to 2D organoid (Trypan blue staining); assay type: cell-based; conditions: 2fp-fucose 3.0 to 1,000 μM, 7 continuous days, versus no treatment (0 μM)
Description: The 2D organoid derived from intestinal stem cells refers to a 2D organoid for infection and culture of human diarrhea virus (including norovirus) disclosed in Patent Document 2. According to Patent Document 2, the 2D organoid is “obtained by Step 1 in which human intestinal epithelial stem cells, human intestinal epithelial cells, or a tissue including at least one of these cells is subjected to 3-dimensional culturing on the extracellular matrix, to thereby obtain a 3D organoid; and by Step 2 in which the above-obtained 3D organoid is dispersed to prepare single cells; the single cells are subjected to monolayer culturing on an extracellular matrix; and there is obtained a 2D organoid having a single-layer structure of the epithelial cells for forming the human intestinal cavity which include differentiated trophoblastic cells and caliciform cells.” By virtue of the 2D organoid, culturing human norovirus, which was not previously achieved, can be successfully performed.
The aforementioned 3D organoid is degraded by use of, for example, TrypLE™ Express (product of Thermo Fisher SCIENTIFIC), to thereby yield single cells. […]
The 2D organoid was treated with 2fp-fucose (3.0 to 1,000 μM) for 7 continuous days. In each case, the number of dead cells was determined through Trypan blue staining. […]

[3] = system: fucose-modified proteins including HBGA on the surface of 2D organoid; assay: HBGA / fucose-modified protein expression on the surface of 2D organoid (binding of FITC-labeled UEA-1); assay type: cell-based, human; conditions: 2fp-fucose 0, 8, 40, 200, 1,000 μM, 4 continuous days
Procedure: The 2D organoid was subjected to a 2fp-fucose treatment (0, 8, 40, 200, and 1,000 μM) for 4 continuous days. Reduction of fucose-modified proteins including HBGA formed on the cell surfaces was investigated by checking binding of FITC (phosphor)-labeled UEA-1 (ulex europaeus agglutinin-1).

[4] = GII.4, groups of 1-day treatment and 2-day treatment with 2fp-fucose

CC(=O)OC1O[C@@H](C)[C@@H](OC(C)=O)[C@@H](OC(C)=O)[C@@H]1F (stereo partly drawn) [2fp-fucose, (3S,4R,5R,6S)-3-fluoro-6-methyltetrahydro-2H-pyran-2,4,5-triyl triacetate]
concentration of slight viral proliferation inhibition ([1]; GII.4 strain, 3 days treatment before infection): 40 µM
concentration of complete viral proliferation inhibition ([1]; GII.4 strain, 3 days treatment before infection, days 3 and 6 after infection): ≥ 200 µM
proliferation of human norovirus ([1]; GII.4, 4-day treatment, 1,000 μM): slight proliferation of human norovirus was observed
viral RNA titer from day 0 to day 7 (proliferation inhibition effect) ([1]; GII.4, agent 200 μM, 3 days treatment before infection): no substantial increase in viral RNA titer was observed
concentration at which the proliferation inhibition effect was observed ([1]; GII.4, group of 3-day treatment, certain range of variation in effectiveness): 200 µM
concentration at which the proliferation inhibition effect was initially observed ([1]; GII.4, group of 4-day treatment): 8 µM
proliferation inhibition effect [1, 4]: no proliferation inhibition effect
proliferation of human norovirus 3 days after inoculation [1, 4]: ≥ 100 fold
concentration giving the highest proliferation inhibition effect ([1]; GII.4, treatment for 3 to 4 days): 200 µM
cell viability (number of dead cells, Trypan blue staining) [2]: no significant difference was observed in cell viability; also recorded: no effect on cell viability was confirmed
amount of α-link fucose including HBGA on the surface of the 2D organoid (UEA-1 binding) [3]: decrease in a concentration-dependent manner
